Assay results from PMC5065237, “Investigation into the Mode of Phosphate Activation in the 4-Hydroxy-4-Methyl-2-Oxoglutarate/4-Carboxy-4-Hydroxy-2-Oxoadipate Aldolase from Pseudomonas putida F1” (PLoS ONE, 2016).

Key:
HMG/CHA aldolase [1] = biological target: T1, HMG/CHA aldolase (Pseudomonas putida, UniProt A5W059); experiment: aldol cleavage, LDH-coupled NADH oxidation at […] nm; type: biochemical; settings: substrate inhibition constant, 1 mM MgCl2, 0.1 M HEPES pH 8.0, 25 °C, racemic substrate
T1 construct: gene Pput_1361; recombinant from pT7-7, expressed in E. coli; chelex-treated apo-enzyme reconstituted with MgCl2
T1 sequence (A5W059 whole entry): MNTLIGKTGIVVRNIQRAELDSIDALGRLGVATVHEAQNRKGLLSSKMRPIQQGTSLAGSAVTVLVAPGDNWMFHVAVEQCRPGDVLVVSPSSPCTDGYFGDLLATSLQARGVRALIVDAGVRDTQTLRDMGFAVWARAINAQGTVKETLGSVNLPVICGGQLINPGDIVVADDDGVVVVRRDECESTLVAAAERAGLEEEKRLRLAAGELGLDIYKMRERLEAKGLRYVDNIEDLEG

HMG/CHA aldolase [2] = biological target: T1, HMG/CHA aldolase; experiment: decarboxylation, LDH-coupled NADH oxidation at […] nm; type: biochemical; settings: substrate inhibition constant, 1 mM MgCl2, 0.1 M HEPES pH 8.0, 25 °C

Structure (SMILES) | Without Pi / Ksi (HMG/CHA aldolase [1]) [mM] | Without Pi / Ksi (HMG/CHA aldolase [2]) [mM]
CC(O)(CC(=O)C(=O)O)C(=O)O (racemic) [HMG] | 1.80 ± 0.091 | –
O=C(O)CC(=O)C(=O)O [OAA] | – | 0.360 ± 0.049
